Values quoted from earlier work in patent publication US20220333169A1, “Polygenic Score for Cardiac Heart Failure” (Henry Ford Health System, priority 2019, published 2022).

Tested on: heart failure patients
Conditions: one randomized clinical trial

In the case of `COc1ccccc1OCCNCC(O)COc1cccc2[nH]c3ccccc3c12` (stereo not shown) [carvedilol], the “95% confidence interval for change in left ventricular ejection fraction (LVEF)” value is given as −11.1 to +32.9.
